From paper PMC5735069, “Targeting the NFAT1-MDM2-MDMX Network Inhibits the Proliferation and Invasion of Prostate Cancer Cells, Independent of p53 and Androgen” (Frontiers in Pharmacology, 2017)

Columns and labels:
MDMX = molecular target: T1, MDMX (Homo sapiens, UniProt O15151); experiment: biotin-InuA streptavidin pulldown with free InuA competition; time-dependent covalent binding kinetics by Western blot (biotin-InuA)
T1 construct: gene MDM4; GST-MDMX RING (RING domain)
T1 sequence (O15151 428-490 limits assumed): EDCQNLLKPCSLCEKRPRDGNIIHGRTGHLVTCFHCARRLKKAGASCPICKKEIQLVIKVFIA

MDM2 = molecular target: T2, MDM2 (Homo sapiens, UniProt Q00987); experiment: as above
T2 construct: GST-MDM2 RING (RING domain)
T2 sequence (Q00987 428-491 limits assumed): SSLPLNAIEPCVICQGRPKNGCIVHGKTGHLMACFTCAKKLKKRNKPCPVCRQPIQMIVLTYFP

KI (inactivation) (MDMX): 860 nM
KI (inactivation) (MDM2): 550 nM
Substance: Inulanolide A [InuA]
